Measurements from patent US12338256B2, “Aza-tetracyclic oxazepine compounds and uses thereof” (Genentech, Inc., priority 2022, dated 2025).

Legend:
Assay type in all cases: cell-based
[1] = tested on: HPAC (homozygous mutant KRAS G12D human pancreatic cell line); assay: KRAS 3D-Cell Proliferation Assay, HPAC (Example 503); settings: Homo sapiens, HPAC, 168 h, HPAC 3D culture, 7 days, CellTiter-Glo 3D; read-out: Prolif HPAC 3D ATP IC50
Method in brief: (§1)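 3D culture, ultra-low attachment wells; RPMI-1640/10% FBS/2 mM L-glutamine. Overnight settle, then compound series, 0.3% DMSO final, 7 d, 37° C, 5% CO2. Readout: CellTiter-Glo 3D luminescence. % inhibition vs DMSO (0%) and 1 μM staurosporine (100%); IC50 via 4-parameter Hill.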

[2] = tested on: H1975 (KRAS wild type human lung adenocarcinoma cell line); assay: KRAS 3D-Cell Proliferation Assay, H1975 (Example 503); settings: Homo sapiens, NCI-H1975, 168 h, H1975 3D culture, 7 days, CellTiter-Glo 3D; read-out: Prolif H1975 3D ATP IC50
Method in brief: as §1

[3] = tested on: AsPC-1 (homozygous mutant KRAS G12D human pancreatic cell line); assay: KRAS 3D-Cell Proliferation Assay, AsPC-1 (Example 503); settings: Homo sapiens, ASPC1, 168 h, AsPC-1 3D culture, 7 days, CellTiter-Glo 3D; read-out: Prolif AsPC-1 3D ATP IC50
Method in brief: as §1

How did the IC50 [1] turn out when Cc1cc(N)c(F)c(-c2nc3c4c(nc(OC[C@@]56CCCN5C[C@H](F)C6)nc4c2F)N2C[C@H]4CC[C@H](N4)[C@H]2[C@H](C)O3)c1CC(F)(F)F [Compound 182, 2-Fluoro-3-((5S,5aS,6S,9R)-1-fluoro-12-(((2R,7aS)-2-fluorotetrahydro-1H-pyrrolizin-7°(5H)-yl)methoxy)-5-methyl-5°,6,7,8,9,10-hexahydro-5H-4-oxa-3,10°,11,13,14-pentaaza-6,9-methanonaphtho[1,8-ab]heptalen-2-yl)-5-methyl-4-(2,2,2-trifluoroethyl)aniline] was run?
Its IC50 is 4.12 nM.

And the IC50 [2]?
Its IC50 is 1910 nM.

And the IC50 [3]?
The IC50 was 8.3 nM.

What does the source list for Cc1c(F)c(N)cc(-c2nc3c4c(nc(OC[C@@]56CCCN5C[C@H](F)C6)nc4c2F)N2C[C@H]4CC[C@H](N4)[C@H]2CO3)c1C(F)(F)F [Compound 61, 2-Fluoro-5-((5aS,6S,9R)-1-fluoro-12-(((2R,7aS)-2-fluorotetrahydro-1H-pyrrolizin-7a(5H)-yl)methoxy)-5a,6,7,8,9,10-hexahydro-5H-4-oxa-3,10a,11,13,14-pentaaza-6,9-methanonaphtho[1,8-ab]heptalen-2-yl)-3-methyl-4-(trifluoromethyl)aniline]?
IC50 [1]: 21.3 nM; IC50 [2]: 2610 nM; IC50 [3]: 44.5 nM

Which results are given for C[C@@H]1Oc2nc(-c3cc(N)c(F)c(F)c3CC(F)(F)F)c(F)c3nc(OC[C@@]45CCCN4C[C@H](F)C5)nc(c23)N2C[C@H]3CC[C@H](N3)[C@@H]12 [Compound 183, 2,3-Difluoro-5-((5S,5aS,6S,9R)-1-fluoro-12-(((2R,7aS)-2-fluorotetrahydro-1H-pyrrolizin-7a(5H)-yl)methoxy)-5-methyl-5a,6,7,8,9,10-hexahydro-5H-4-oxa-3,10a,11,13,14-pentaaza-6,9-methanonaphtho[1,8-ab]heptalene-2-yl)-4-(2,2,2-trifluoroethyl)aniline]?
IC50 [1]: 2.32 nM; IC50 [2]: 852 nM; IC50 [3]: 4.2 nM

How did the IC50 [1] turn out when Cc1nc(N)cc(-c2nc3c4c(nc(OCC5(CN6CCOCC6)CC5)nc4c2F)N2C[C@H]4CC[C@H](N4)[C@H]2[C@H](C)O3)c1C(F)(F)F [Compound 210, 4-((5S,5aS,6S,9R)-1-Fluoro-5-methyl-12-((1-(morpholinomethyl)cyclopropyl)methoxy)-5a,6,7,8,9,10-hexahydro-5H-4-oxa-3,10a,11,13,14-pentaaza-6,9-methanonaphtho[1,8-ab]heptalene-2-yl)-6-methyl-5-(trifluoromethyl)pyridin-2-amine] was run?
The IC50 was 1.81 nM.

And the IC50 [2]?
The IC50 was 868 nM.

What about the IC50 [3] of the same compound?
The IC50 was 3.6 nM.

What does the source list for C[C@@H]1Oc2nc(-c3cc(N)c(F)c(F)c3CC(F)F)c(F)c3nc(OC[C@@]45CCCN4C[C@H](F)C5)nc(c23)N2C[C@H]3CC[C@H](N3)[C@@H]12 [Compound 190, 4-(2,2-Difluoroethyl)-2,3-difluoro-5-((5S,5aS,6S,9R)-1-fluoro-12-(((2R,7aS)-2-fluorotetrahydro-1H-pyrrolizin-7a(5H)-yl)methoxy)-5-methyl-5a,6,7,8,9,10-hexahydro-5H-4-oxa-3,10a,11,13,14-pentaaza-6,9-methanonaphtho[1,8-ab]heptalene-2-yl)aniline]?
IC50 [1]: 2.2 nM; IC50 [2]: 1560 nM; IC50 [3]: 12.6 nM

How did the IC50 [1] turn out when C#Cc1c(F)ccc2cccc(-c3nc4c5c(nc(OCC67CCN6CC(F)(F)C7)nc5c3F)N3C[C@H]5CC[C@H](N5)[C@H]3[C@H](C)O4)c12 (stereo partly drawn) [Compound 22, (5S,5aS,6S,9R)-12-((3,3-difluoro-1-azabicyclo[3.2.0]heptan-5-yl)methoxy)-2-(8-ethynyl-7-fluoronaphthalen-1-yl)-1-fluoro-5-methyl-5a,6,7,8,9,10-hexahydro-5H-4-oxa-3,10a,11,13,14-pentaaza-6,9-methanonaphtho[1,8-ab]heptalene] was run?
Its IC50 is 139 nM.

What about the IC50 [2] of the same compound?
Its IC50 is 20000 nM.

What about the IC50 [3] of the same compound?
Its IC50 is 60.3 nM.

How did the IC50 [1] turn out when C#Cc1cccc2cc(O)cc(-c3nc4c5c(nc(OC[C@@]67CCCN6C[C@H](F)C7)nc5c3F)N3C[C@H]5CC[C@H](N5)[C@H]3[C@H](C(F)(F)F)O4)c12 [Compound 251] was run?
Its IC50 is 2.3 nM.

And the IC50 [2]?
Its IC50 is 234 nM.

And the IC50 [3]?
The IC50 was 1.9 nM.

For Cc1cc2[nH]ncc2c(-c2nc3c4c(nc(OC[C@@]56CCCN5C[C@H](F)C6)nc4c2F)N2C[C@H]4CC[C@H](N4)[C@H]2[C@H](C)O3)c1Cl [Compound 176, (5S,5aS,6S,9R)-2-(5-Chloro-6-methyl-1H-indazol-4-yl)-1-fluoro-12-(((2R,7aS)-2-fluorotetrahydro-1H-pyrrolizin-7a(5H)-yl)methoxy)-5-methyl-5a,6,7,8,9,10-hexahydro-5H-4-oxa-3,10a,11,13,14-pentaaza-6,9-methanonaphtho[1,8-ab]heptalene], which IC50 [1] is on record?
The IC50 was 168 nM.

And the IC50 [2]?
Its IC50 is 15200 nM.

And the IC50 [3]?
The IC50 was 200 nM.

Which IC50 [1] does the source give for Cc1c(F)c(N)cc(-c2nc3c4c(nc(OCC5(CN6C[C@H]7C[C@@H]6CO7)CC5)nc4c2F)N2C[C@H]4CC[C@H](N4)[C@H]2[C@H](C)O3)c1C(F)(F)F [Compound 170, 5-((5S,5aS,6S,9R)-12-((1-(((1R,4R)-2-Oxa-5-azabicyclo[2.2.1]heptan-5-yl)methyl)cyclopropyl)methoxy)-1-fluoro-5-methyl-5a,6,7,8,9,10-hexahydro-5H-4-oxa-3,10a,11,13,14-pentaaza-6,9-methanonaphtho[1,8-ab]heptalene-2-yl)-2-fluoro-3-methyl-4-(trifluoromethyl)aniline] here?
The IC50 was 0.92 nM.

And the IC50 [2]?
The IC50 was 506 nM.

What about the IC50 [3] of the same compound?
Its IC50 is 0.8 nM.

What does the source list for Cc1c(F)c(N)c(F)c(-c2nc3c4c(nc(OC[C@@H]5CC[C@H]6COCCN65)nc4c2F)N2C[C@H]4CC[C@H](N4)[C@H]2[C@H](C)O3)c1C(F)(F)F [Compound 96, 2,6-Difluoro-3-((5S,5aS,6S,9R)-1-fluoro-12-(((6S,8aS)-hexahydro-1H-pyrrolo[2,1-c][1,4]oxazin-6-yl)methoxy)-5-methyl-5a,6,7,8,9,10-hexahydro-5H-4-oxa-3,10a,11,13,14-pentaaza-6,9-methanonaphtho[1,8-ab]heptalen-2-yl)-5-methyl-4-(trifluoromethyl)aniline]?
IC50 [1]: 3.69 nM; IC50 [2]: 982 nM; IC50 [3]: 5.8 nM

What does the source list for Cc1c(F)c(N)cc(-c2nc3c4c(nc(OCC5(CN6CCOCC6)CC5)nc4c2F)N2C[C@H]4CC[C@H](N4)[C@H]2[C@H](C)O3)c1CC(F)F [Compound 156, 4-(2,2-Difluoroethyl)-2-fluoro-5-((5S,5aS,6S,9R)-1-fluoro-5-methyl-12-((1-(morpholinomethyl)cyclopropyl)methoxy)-5a,6,7,8,9,10-hexahydro-5H-4-oxa-3,10a,11,13,14-pentaaza-6,9-methanonaphtho[1,8-ab]heptalen-2-yl)-3-methylaniline]?
IC50 [1]: 2.94 nM; IC50 [2]: 776 nM; IC50 [3]: 9.4 nM

With Cc1nc(N)cc(-c2nc3c4c(nc(OC[C@@]56CCCN5CC5(CC5(F)F)C6)nc4c2F)N2C[C@H]4CC[C@H](N4)[C@H]2[C@H](C)O3)c1C(F)(F)F (stereo partly drawn) [Compound 216, 4-((5S,5aS,6S,9R)-12-(((7a′S)-2,2-Difluorodihydro-1′,3′H-spiro[cyclopropane-1,2′-pyrrolizin]-7a′(5′H)-yl)methoxy)-1-fluoro-5-methyl-5a,6,7,8,9,10-hexahydro-5H-4-oxa-3,10a,11,13,14-pentaaza[6,9]methanonaphtho[1,8-ab]heptalene-2-yl)-6-methyl-5-(trifluoromethyl)pyridin-2-amine] as the compound, how does the IC50 [1] read?
The IC50 was 0.893 nM.

What about the IC50 [2] of the same compound?
The IC50 was 161 nM.

And the IC50 [3]?
The IC50 was 0.6 nM.

How did the IC50 [1] turn out when Cc1nc(N)c(F)c(-c2nc3c4c(nc(OC[C@@]56CCCN5CC5(CC5(F)F)C6)nc4c2F)N2C[C@H]4CC[C@H](N4)[C@H]2[C@H](C(F)(F)F)O3)c1C(F)(F)F (stereo partly drawn) [Compound 257, 4-((5R,5aS,6S,9R)-12-(((7a′S)-2,2-Difluorodihydro-1′H,3′H-spiro[cyclopropane-1,2′-pyrrolizin]-7a′(5′H)-yl)methoxy)-1-fluoro-5-(trifluoromethyl)-5a,6,7,8,9,10-hexahydro-5H-4-oxa-3,10a,11,13,14-pentaaza[6,9]methanonaphtho[1,8-ab]heptalen-2-yl)-3-fluoro-6-methyl-5-(trifluoromethyl)pyridin-2-amine] was run?
The IC50 was 8.37 nM.

What about the IC50 [2] of the same compound?
The IC50 was 5020 nM.

And the IC50 [3]?
The IC50 was 8 nM.

With Cc1nc(N)c(F)c(-c2nc3c4c(nc(OC[C@@]56CCCN5C[C@H](F)C6)nc4c2F)N2C[C@H]4CC[C@H](N4)[C@H]2[C@H](C)O3)c1C(F)(F)F [Compound 194, 3-Fluoro-4-((5S,5aS,6S,9R)-1-fluoro-12-(((2R,7aS)-2-fluorotetrahydro-1H-pyrrolizin-7a(5H)-yl)methoxy)-5-methyl-5a,6,7,8,9,10-hexahydro-5H-4-oxa-3,10a,11,13,14-pentaaza-6,9-methanonaphtho[1,8-ab]heptalen-2-yl)-6-methyl-5-(trifluoromethyl)pyridin-2-amine] as the compound, how does the IC50 [1] read?
The IC50 was 4.99 nM.

What about the IC50 [2] of the same compound?
Its IC50 is 919 nM.

What about the IC50 [3] of the same compound?
The IC50 was 2.7 nM.

C[C@@H]1Oc2nc(-c3cc(N)c(F)cc3C(F)(F)F)c(F)c3nc(OC[C@@H]4CC[C@H]5COCCN54)nc(c23)N2C[C@H]3CC[C@H](N3)[C@@H]12 [Compound 70, 2-Fluoro-5-((5S,5aS,6S,9R)-1-fluoro-12-(((6S,8aS)-hexahydro-1H-pyrrolo[2,1-c][1,4]oxazin-6-yl)methoxy)-5-methyl-5a,6,7,8,9,10-hexahydro-5H-4-oxa-3,10a,11,13,14-pentaaza-6,9-methanonaphtho[1,8-ab]heptalen-2-yl)-4-(trifluoromethyl)aniline] was tested. Which IC50 [1] did it give?
The IC50 was 11 nM.

And the IC50 [2]?
Its IC50 is 1700 nM.

What about the IC50 [3] of the same compound?
Its IC50 is 44.1 nM.

What does the source list for Cc1c(F)c(N)cc(-c2nc3c4c(nc(OC[C@@]56CCCN5C[C@H](F)C6)nc4c2F)N2C[C@H]4CC[C@H](N4)[C@@H]2C(C)O3)c1C(F)(F)F (single isomer, unassigned) [237 (isomer 2)]?
IC50 [1]: 3.63 nM; IC50 [2]: 1040 nM; IC50 [3]: 200 nM
